Numbering of substitutions follows the chain as printed.
What was measured:
EPSPase [1] = test: Ex-vivo EPSPase activity assay, crude extract; type: biochemical, wide-type Arabidopsis thaliana
Method: (§1) 0.5 g of the seedlings of Ophiopogon japonicus, Liriope spicata, Liriope platyphylla and wide-type Arabidopsis thaliana were weighed, added with 150 ml of an extraction buffer A [containing 100 mmol/L Tris pH 7.5, 1 mmol/L EDTA, 10% (V/V) glycerol, 1 mg/L BSA, 10 mmol/L Vitamin C (Vc), 1 mmol/L benzamidine, 5 mmol/L DTT, and 20 mg/ml PVPP], ground and homogenized, filtered through 6 layers of gauze, and centrifuged at 12000 rpm and 4° C. […] Following the method as described by Lanzetta and Alvarez (1979), the reaction was developed for 30 min by adding 800 μl of malachite green hydrochloride, and then 100 μl of a 34% sodium citrate solution was added. After 30 min, the OD660 value was determined at 660 nm on a spectrophotometer. […] Logistic regression analysis was performed and the ED50 was calculated.

[2] = tested on: E. Coli BL21 (DE3) transformed with LS-EPSPS-PET; test: Growth (OD) of E. coli strain transformed with LS-EPSPS-PET in glyphosate-containing LB; type: cell-based; conditions: compared with strain with empty vector PET-28a
Method: The LS-EPSPS gene was cloned into the vector PET-28a, and transferred to E. Coli BL21 (DE3), to obtain a transgenic strain. The reading frame of the transgenic strain was expressed under control of the T7 promoter in the PET system.
The stain transformed with LS-EPSPS-PET or PET-28a (empty vector, control) was incubated in LB, and grown in an LB liquid medium containing Kan at 37° C. when OD600 reached […], until the OD value reached about 0.4. […] These indicate that the LS-EPSPS gene has glyphosate-resistant/tolerant activity.

[3] = tested on: callus of the transgenic Arabidopsis thaliana; test: Callus growth on glyphosate-containing MS medium, LS-EPSPS transgenic; type: cell-based; conditions: two weeks, 25° C.
Method: (§2) The transgenic Arabidopsis thaliana plant was obtained by screening. The stem of the tissue cultured seedling of the non-transgenic and the LS-EPSPS transgenic Arabidopsis thaliana was used as an explant for callus induction in an MS medium containing 2.0 mg/L of 6-BA and 0.1 mg/L of NAA. […] The results were statistically calculated after two weeks.

[4] = tested on: callus of the control Arabidopsis thaliana; test: Callus growth on glyphosate-containing MS medium, control; type: cell-based; conditions: two weeks, 25° C.
Method: as §2

EPSPase [5] = target: T1, EPSPase (Ophiopogon japonicus, UniProt A0A0N7E509); test: Ex-vivo EPSPase activity assay, crude extract; type: biochemical; conditions: 25° C., 15 min
T1 sequence (A0A0N7E509 64-516): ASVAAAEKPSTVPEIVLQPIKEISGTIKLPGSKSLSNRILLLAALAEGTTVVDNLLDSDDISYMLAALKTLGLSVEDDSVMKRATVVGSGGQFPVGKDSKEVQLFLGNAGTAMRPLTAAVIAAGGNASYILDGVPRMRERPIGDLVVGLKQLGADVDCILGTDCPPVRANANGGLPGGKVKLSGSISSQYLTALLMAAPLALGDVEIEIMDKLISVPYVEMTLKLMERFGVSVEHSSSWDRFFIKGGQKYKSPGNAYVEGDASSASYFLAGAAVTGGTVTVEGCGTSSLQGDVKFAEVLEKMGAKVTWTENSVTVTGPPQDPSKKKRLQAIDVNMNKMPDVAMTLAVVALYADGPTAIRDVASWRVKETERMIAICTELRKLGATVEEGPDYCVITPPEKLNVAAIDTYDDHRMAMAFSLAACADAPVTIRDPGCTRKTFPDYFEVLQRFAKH
Method: as §1

EPSPase [6] = target: T2, EPSPase (Liriope muscari (Liriope platyphylla), UniProt A0A0N9BED7); test: Ex-vivo EPSPase activity assay, crude extract; type: biochemical; conditions: 25° C., 15 min
T2 sequence (A0A0N9BED7 66-518): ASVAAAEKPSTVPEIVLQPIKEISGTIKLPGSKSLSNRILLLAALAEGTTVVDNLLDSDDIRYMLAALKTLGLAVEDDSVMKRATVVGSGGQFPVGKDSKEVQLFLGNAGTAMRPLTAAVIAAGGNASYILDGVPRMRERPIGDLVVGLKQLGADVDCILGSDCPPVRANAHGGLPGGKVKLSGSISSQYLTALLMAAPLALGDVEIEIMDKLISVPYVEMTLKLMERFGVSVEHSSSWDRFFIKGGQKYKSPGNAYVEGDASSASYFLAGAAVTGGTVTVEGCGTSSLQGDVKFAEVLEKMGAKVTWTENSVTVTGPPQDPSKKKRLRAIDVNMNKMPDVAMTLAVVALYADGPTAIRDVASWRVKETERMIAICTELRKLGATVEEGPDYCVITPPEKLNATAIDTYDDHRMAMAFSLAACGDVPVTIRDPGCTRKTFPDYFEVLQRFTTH
Method: as §1

EPSPase [7] = target: T3, EPSPase (Liriope spicata, UniProt A0A0N9BED5); test: Ex-vivo EPSPase activity assay, crude extract; type: biochemical; conditions: 25° C., 15 min
T3 sequence (A0A0N9BED5 66-518): T2 sequence (A0A0N9BED7 66-518) with A74T, S162T, I331V, T404N, G424A
Method: as §1

**Q.** For `O=C(O)CNCP(=O)(O)O` [glyphosate, N-(phosphonomethyl)glycine], which “glyphosate concentration at which EPSPase activity declines obviously” value (EPSPase [1]; 25° C., 15 min) is on record?
**A.** 500 µmol/L

**Q.** What about the EC50 (EPSPase [1]; logistic regression, read-out: ED50 for the EPSPase activity) of the same compound?
**A.** 560 µM

**Q.** And the “ED50 value of the strain (logistic regression)” value [2]?
**A.** greatly higher than that of the strain with the empty vector PET-28a

**Q.** What about the “glyphosate concentration at which callus can still normally grow” value [3] of the same compound?
**A.** 600 mg/L

**Q.** And the “glyphosate concentration at which callus is inhibited in growth and becomes brown and yellow” value [3]?
**A.** 800 mg/L

**Q.** And the “glyphosate concentration at which callus becomes yellow and gradually mortifies” value [4]?
**A.** 50 mg·L

**Q.** What about the “glyphosate concentration at which EPSPase activity declines obviously” value (EPSPase [5]) of the same compound?
**A.** 800 µmol/L

**Q.** What about the “glyphosate concentration at which EPSPase activity declines obviously” value (EPSPase [6]) of the same compound?
**A.** 1000 µmol/L

**Q.** What about the “glyphosate concentration at which EPSPase activity declines obviously” value (EPSPase [7]) of the same compound?
**A.** 1000 µmol/L

Source: patent US9926573B2, “Glyphosate-tolerant gene and use thereof” (priority 2012, dated 2018)
